This test deals with wheat representing narrow leaf weeds. Kind of test: Bioefficacy, greenhouse spray test with IPA glyphosate + adjuvant. The format is in vivo. Particulars: compared to untreated plant. As to the method:
All bioefficacy testing was done at University of Georgia's Agricultural Experiment Station in Griffin, Georgia Concentrates were first formulated by blending IPA glyphosate salt with the desired amount surfactant and water resulting in a 20 wt % ae and a 6.49% surfactant solution. Prior to spraying two sets of diluted solutions were prepared by dissolving 16 g of concentrates into 984 grams of tap water and a second set by dissolving 500 g of the above dilute solution into 500 g of tap water. […] All of the plants were placed in a temperature controlled greenhouse and measured for growth (or lack of) each week for a period of 4 weeks. The data is reported as % Growth Control compared to untreated plant. The higher the value the better the bioefficacy. When the last measurement was taken at 4 weeks the plants are cut at the roots and the “fresh” weight measured.
Testing in the foregoing manner yielded the following results: • Plant Species—Wheat • IPA-glyphosate application rate—300 g a.e./H
• Plant Species—Wheat • IPA-glyphosate application rate—600 g a.e./H

For the compound `O=C(O)CNCP(=O)(O)O` [IPA-Glyphosate only, N-phosphonomethylglycine], the “% Growth Control” value stood at 31% (IPA-glyphosate application rate 300 g a.e./H) and 72% (IPA-glyphosate application rate 600 g a.e./H).
